Measured values as given in PMC12005229, “Final results from the phase Ia/Ib study of the novel bromodomain and extra-terminal domain inhibitor, BI 894999, in patients with advanced solid tumors or diffuse large B-cell lymphoma” (ESMO Open, 2025).
Read-outs that look alike come from different tables or passages of the source.

Experiments:
[1] = plasma pharmacokinetics, LC-MS/MS, noncompartmental analysis; format: in vivo, human; settings: for Tmax / AUC(0-t) / Cmax: human, plasma, oral
Method: Samples were collected for PK analysis in cycle 1: 5 min pre-dose, 30 min, 1, 2, 3, 4, 6, and 8 h after drug administration on day 1 (schedules B and C) and on day 14 (for schedule B) or day 21 (for schedule C); 5 min pre-dose on days 8 and 12 (for schedule B) and at time of the visit on day 8 (168 h) for schedule C; 5 min pre-dose on day 18 (at time of the visit) for schedule B; and on day 22 (504 and 512 h) and day 29 (at time of the visit) for schedule C. For schedule B, a few additional samples were also taken in cycle 2: 5 min pre-dose, 2, 4, and 8 h on day 1, and 5 min pre-dose on day 2.
BI 894999 plasma concentrations were determined using a validated assay based on liquid chromatography coupled with tandem mass spectrometry. PK parameters were determined by noncompartmental analysis using the Phoenix WinNonlin software (Phoenix 6.3, Certara USA Inc., Princeton, NJ).

[2] = tested on: HEXIM1, HIST2H2BF, and CCR2; experiment: NanoString gene expression in blood (target engagement); format: in vivo, human
Method: The evaluation of biomarkers to identify patient subgroups with differential prognosis or response to treatment was exploratory, with no formal endpoints defined. Blood samples were assessed using an in-house-designed NanoString panel (NanoString, Seattle, WA) measuring gene expression levels of HEXIM1, HIST2H2BF, and CCR2 over all time points, and postdose expression levels of HEXIM1, HIST2H2BF, and CCR2 on days 14 and 15. HEXIM1 is modulated by BET family proteins and is considered a robust pharmacodynamic marker of BET inhibition,[30] whereas HIST2H2BF and CCR2 are involved in cancer pathways.[31]^,[32]
Total RNA was extracted from whole blood using PAXgene Blood RNA kit (Qiagen, Hilden, Germany) following the manufacturer’s instructions. Total RNA was quantified by direct absorbance measurement at 260 nm using a NanoDrop Spectrophotometer (Thermo Fisher, Waltham, MA). Quality check was carried out by additional measurement of absorbance at 280 nm and calculation of the absorbance ratio OD260/OD280.
mRNA expression was assessed using a custom nCounter® (NanoString, Seattle, WA) codeset generated for the genes of interest plus housekeeping genes. Probes were hybridized to 150 ng of total RNA for 19 h at 65°C and applied to the nCounter® Preparation Station for automated removal of excess probe and immobilization of probe–transcript complexes on a streptavidin-coated cartridge. Data were collected using the nCounter® Digital Analyzer by counting the individual barcodes. Data were analyzed using an in-house analysis pipeline that follows the latest NanoString Technologies standards for the analysis of nCounter® data. The analysis pipeline includes quality checking of the raw data using the NAnostring quality Control dasHbOard (NACHO), a comprehensive method to optimize the quality control of nCounter® data.[33] The housekeeping genes ACTB, GAPDH, HPRT1, MGAT1, and TMED9 were used for normalization.

BRD4-BD1 = tested on: BRD4-BD1; parameters: method as in PMID 35444289; settings: read-out: IC50, inhibition of interaction of acetylated histone H4-derived peptide with BRD4-BD1; cited from earlier work
BRD4-BD2 = tested on: BRD4-BD2; parameters: method as in PMID 35444289; settings: read-out: IC50, inhibition of interaction of acetylated histone H4-derived peptide with BRD4-BD2; cited from earlier work

For `CNc1nc(-c2nc3ccc(N4CCN(C)CC4)cc3n2Cc2ccccc2)cn2c(C)nnc12` [BI 894999], the Tmax ([1]; 1.5 mg, phase Ia DLBCL, schedule B 1.5 mg, day 1, read-out: tmax median) was 2.02 h, the Tmax ([1]; 1.5 mg, phase Ia DLBCL, schedule B 1.5 mg, day 14, read-out: tmax,ss median) was 2.56 h and the Tmax ([1]; 2 mg, phase Ia DLBCL, schedule B 2.0 mg, day 1, read-out: tmax median) was 2.01 h. The AUC(0-t) ([1]; 2 mg, phase Ia DLBCL, schedule B 2.0 mg, day 14, read-out: AUC0–24,ss gMean (gCV, %)) was 0.12 µM·h, the Tmax ([1]; 2 mg, phase Ia DLBCL, schedule B 2.0 mg, day 14, read-out: tmax,ss median) was 2.12 h and the Tmax ([1]; 2 mg, phase Ib solid tumors, schedule B 2.0 mg, day 1, read-out: tmax median) was 2 h. It also gave a Tmax ([1]; 2 mg, phase Ib solid tumors, schedule B 2.0 mg, day 14, read-out: tmax,ss median) of 2 h, an AUC(0-t) ([1]; 2.5 mg, phase Ia DLBCL, schedule B 2.5 mg, day 1, read-out: AUC0–24 gMean (gCV, %)) of 0.0533 µM·h and a Tmax ([1]; 2.5 mg, phase Ia DLBCL, schedule B 2.5 mg, day 1, read-out: tmax median) of 2.04 h. It also gave a Tmax ([1]; 2.5 mg, phase Ib, schedule B 2.5 mg including NUT carcinoma, day 1, read-out: tmax median) of 2.01 h, an AUC(0-t) ([1]; 2.5 mg, phase Ib, schedule B 2.5 mg including NUT carcinoma, day 14, read-out: AUC0–24,ss gMean (gCV, %)) of 0.125 µM·h and a Tmax ([1]; 2.5 mg, phase Ib, schedule B 2.5 mg including NUT carcinoma, day 14, read-out: tmax,ss median) of 2 h. For the same compound, the AUC(0-t) ([1]; 4 mg, phase Ia DLBCL, schedule C 4.0/2.0 mg, day 1 after loading dose, read-out: AUC0–24 gMean (gCV, %)) was 0.138 µM·h, the Tmax ([1]; 4 mg, phase Ia DLBCL, schedule C 4.0/2.0 mg, day 1 after loading dose, read-out: tmax median) was 2 h and the AUC(0-t) ([1]; 6 mg, phase Ib, schedule C 6.0/3.0 mg NUT carcinoma only, day 1 after loading dose, read-out: AUC0–24 gMean (gCV, %)) was 0.214 µM·h. It also gave a Tmax ([1]; 6 mg, phase Ib, schedule C 6.0/3.0 mg NUT carcinoma only, day 1 after loading dose, read-out: tmax median) of 2 h, an AUC(0-t) ([1]; phase Ib, schedule C 6.0/3.0 mg NUT carcinoma only, day 21, read-out: AUC0–24,ss gMean (gCV, %)) of 0.149 µM·h and a Tmax ([1]; phase Ib, schedule C 6.0/3.0 mg NUT carcinoma only, day 21, read-out: tmax,ss median) of 2.05 h. The Tmax ([1]; single dose day 1 and once-daily multiple doses days 14 or 21, read-out: median time to maximum plasma concentration (tmax)) was about 2 h, the Cmax ([1]; phase Ia DLBCL, schedule B 2.0 mg, day 14, read-out: Cmax,ss gMean (gCV, %)) was 7.67 nM and the Cmax ([1]; phase Ia DLBCL, schedule B 2.5 mg, day 1, read-out: Cmax gMean (gCV, %)) was 4.75 nM. The “dose dependence of plasma concentrations” value ([1]; within a dosing schedule and indication) was “increased with increasing dose”, the “target engagement (≥2 of 3 genes with twofold or greater change)” value ([2]; phase Ia DLBCL patient blood samples) was “target engagement was seen at all dose levels” and the “HEXIM1 induction, median fold change from baseline” value ([2]; phase Ib, NUT carcinoma, blood) was 1.93. The “target engagement (≥2 of 3 genes with twofold or greater change)” value ([2]; phase Ib, blood samples from the various solid tumor entities) was “all showed target engagement”, the IC50 (BRD4-BD1) was 5 ± 3 nM and the IC50 (BRD4-BD2) was 41 ± 30 nM.
